Counter-ions that a name gives are not always drawn. Like-named read-outs stand apart in the source and are kept apart here.
Key:
Type in all cases: biochemical
factor Xa = target: T1, factor Xa (Homo sapiens, UniProt P00742); test: Kass with factor Xa, chromogenic substrate; conditions: substrate N-Benzoyl-Ile-Glu-Gly-Arg-p-nitroanilide
T1 construct: Human factors X, Xa, IXa, XIa, and XIIa are purchased; purchased Enzyme Research Laboratories, South Bend, Ind
Procedure: (§1) By substantially following the procedures described above for human thrombin, and using other human blood coagulation system serine proteases and proteases of the fibrinolytic system with the appropriate chromogenic substrates, identified below, selectivity of the compounds of the present invention with respect to the coagulation factor serine proteases and with respect to the fibrinolytic system serine proteases are evaluated as well as their substantial lack of interference with serine proteases of the fibrinolytic system. Thrombin inhibitors preferably should spare fibrinolysis induced by urokinase, tissue plasminogen activator (t-PA) and streptokinase. This would be important to the therapeutic use of such agents as an adjunct to streptokinase, t-PA or urokinase thrombolytic therapy and to the use of such agents as an endogenous fibrinolysis-sparing (with respect to t-PA and urokinase) antithrombotic agent. In addition to the lack of interference with the amidase activity of the fibrinolytic proteases, such fibrinolytic system sparing can be studied by the use of human plasma clots and their lysis by the respective fibrinolytic plasminogen activators.
(§2) Human factors X, Xa, IXa, XIa, and XIIa are purchased from Enzyme Research Laboratories, South Bend, Ind.; human urokinase from Leo Pharmaceuticals, Denmark; and recombinant activated Protein C (aPC) is prepared at Eli Lilly and Co. substantially according to U.S. Patent No. 4,981,952. Chromogenic substrates: N-Benzoyl-Ile-Glu-Gly-Arg-p-nitroanilide (for factor Xa); N-Cbz-D-Arg-Gly-Arg-p-nitroanilide (for factor IXa assay as the factor Xa substrate); Pyroglutamyl-Pro-Arg-p-nitroanilide (for Factor XIa and for aPC); H-D-Pro-Phe-Arg-p-nitroanilide (for factor XIIa); and Pyroglutamyl-Gly-Arg-p-nitroanilide (for urokinase); are purchased from KabiVitrum, Stockholm, Sweden, or from Midwest Biotech, Fishers, Ind. Bovine trypsin is purchased from Worthington Biochemicals, Freehold, N.J., and human plasma kallikrein from Kabi Vitrum, Stockholm, Sweden. Chromogenic substrate H-D-Pro-Phe-Arg-p-nitroanilide for plasma kallikrein is purchased from Kabi Vitrum, Stockholm, Sweden. N-Benzoyl-Phe-Val-Arg-p-nitroanilide, the substrate for human thrombin and for trypsin, is synthesized according to procedures described above for the compounds of the present invention, using known methods of peptide coupling from commercially available reactants or purchased from Midwest Biotech, Fishers, Ind.

Human Thrombin = Human Thrombin (Homo sapiens, UniProt P00734); test: Inhibition of amidase activity of thrombin (Kass)
Bovine trypsin = target: T2, Bovine trypsin (Bos taurus, UniProt P00760); test: Kass with trypsin, chromogenic substrate; conditions: substrate N-Benzoyl-Phe-Val-Arg-p-nitroanilide
T2 construct: Bovine trypsin is purchased; purchased Worthington Biochemicals, Freehold, N.J
T2 sequence (P00760 24-246): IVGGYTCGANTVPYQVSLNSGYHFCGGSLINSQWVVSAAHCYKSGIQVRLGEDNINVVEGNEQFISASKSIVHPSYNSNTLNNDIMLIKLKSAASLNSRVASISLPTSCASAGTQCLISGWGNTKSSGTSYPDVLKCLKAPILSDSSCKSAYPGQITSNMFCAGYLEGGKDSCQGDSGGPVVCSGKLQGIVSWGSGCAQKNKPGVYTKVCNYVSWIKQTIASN
Procedure: as §1, §2

Human plasmin = target: T3, Human plasmin (Homo sapiens, UniProt P00747); test: Kass with plasmin, chromogenic substrate; conditions: substrate H-D-Val-Leu-Lys-p-nitroanilide
T3 construct: Human plasmin is purchased; purchased Boehringer Mannheim, Indianapolis, Ind
T3 sequence (P00747 97-810): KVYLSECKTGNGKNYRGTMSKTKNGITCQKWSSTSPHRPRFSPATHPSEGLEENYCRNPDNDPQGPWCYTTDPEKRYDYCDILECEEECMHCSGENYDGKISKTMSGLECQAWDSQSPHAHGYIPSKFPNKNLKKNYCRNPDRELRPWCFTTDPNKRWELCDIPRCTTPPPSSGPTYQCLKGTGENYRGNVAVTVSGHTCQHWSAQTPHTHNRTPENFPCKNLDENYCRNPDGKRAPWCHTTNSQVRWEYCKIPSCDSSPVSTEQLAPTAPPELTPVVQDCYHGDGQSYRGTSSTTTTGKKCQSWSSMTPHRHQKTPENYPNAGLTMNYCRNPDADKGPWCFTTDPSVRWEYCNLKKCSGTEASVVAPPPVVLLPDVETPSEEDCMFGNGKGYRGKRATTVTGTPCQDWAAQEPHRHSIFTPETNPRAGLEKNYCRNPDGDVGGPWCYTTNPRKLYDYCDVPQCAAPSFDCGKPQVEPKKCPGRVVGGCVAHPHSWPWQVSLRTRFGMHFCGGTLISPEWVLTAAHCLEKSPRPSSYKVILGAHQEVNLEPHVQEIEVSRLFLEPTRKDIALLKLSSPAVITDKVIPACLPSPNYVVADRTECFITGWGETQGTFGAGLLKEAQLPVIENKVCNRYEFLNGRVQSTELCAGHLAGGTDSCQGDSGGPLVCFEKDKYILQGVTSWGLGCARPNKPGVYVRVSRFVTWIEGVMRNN
T3 sequence (P00747 97-580 partner limits assumed): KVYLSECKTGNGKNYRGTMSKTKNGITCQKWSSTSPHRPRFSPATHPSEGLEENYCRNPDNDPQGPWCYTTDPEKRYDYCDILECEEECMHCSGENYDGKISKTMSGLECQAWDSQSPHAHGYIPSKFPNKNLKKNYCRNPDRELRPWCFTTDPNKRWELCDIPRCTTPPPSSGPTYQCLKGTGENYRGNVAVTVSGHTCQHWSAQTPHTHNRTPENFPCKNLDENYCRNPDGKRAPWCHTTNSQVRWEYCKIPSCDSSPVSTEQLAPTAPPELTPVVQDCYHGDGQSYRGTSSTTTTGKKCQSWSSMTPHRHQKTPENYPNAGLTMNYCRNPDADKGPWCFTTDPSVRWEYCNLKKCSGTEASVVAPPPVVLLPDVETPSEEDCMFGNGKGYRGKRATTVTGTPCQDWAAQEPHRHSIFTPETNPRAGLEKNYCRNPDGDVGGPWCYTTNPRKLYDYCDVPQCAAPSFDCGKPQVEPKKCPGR
Procedure: as §1
Human plasmin is purchased from Boehringer Mannheim, Indianapolis, Ind.; nt-PA is purchased as single chain activity reference from American Diagnostica, Greenwich, Conn. modified-t-PA6 (mt-PA6) is prepared at Eli Lilly and Company by procedure known in the art (See, Burck, et al., J. Biol. Chem., 265, […] (1990). Plasmin chromogenic substrate H-D-Val-Leu-Lys-p-nitroanilide and tissue plasminogen activator (t-PA) substrate H-D-Ile-Pro-Arg-p-nitroanilide are purchased from Kabi Vitrum, Stockholm, Sweden.

Human plasma [1] = test: Human plasma anticoagulation, thrombin time (TT); conditions: concentration required to double the thrombin time, linear extrapolation
Procedure: (§3) Dog plasma and rat plasma is obtained from conscious mixed-breed hounds (either sex, Hazelton-LRE, Kalamazoo, Mich., U.S.A.) or from anesthetized male Sprague-Dawley rats (Harlan Sprague-Dawley, Inc., Indianapolis, Ind., U.S.A.) by venipuncture into 3.8 percent citrate. Fibrinogen is prepared from in-date ACD human blood as the fraction I-2 according to previous procedures and specifications. […] Human fibrinogen is also purchased as 98 percent pure/plasmin free from American Diagnostica, Greenwich, Conn. Coagulation reagents ACTIN, Thromboplastin, and Human plasma are from Baxter Healthcare Corp., Dade Division, Miami, Fla. Bovine thrombin from Parke-Davis ([…], Mich.) is used for coagulation assays in plasma.
(§4) Coagulation assay procedures are as previously described. […] A CoAScreener coagulation instrument (American LABor, Inc.) is used for all coagulation assay measurements. The prothrombin time (PT) is measured by adding 0.05 mL saline and 0.05 mL Thromboplastin-C reagent to 0.05 mL test plasma. The activated partial thromboplastin time (APTT) is measured by incubation of 0.05 mL test plasma with 0.05 mL Actin reagent for 120 seconds followed by 0.05 mL CaCl2 (0.02M). The thrombin time (TT) is measured by adding 0.05 mL saline and 0.05 mL thrombin (10 NIH units/mL) to 0.05 mL test plasma. The compounds of Formula I are added to human or animal plasma over a wide range of concentrations to determine prolongation effects on the APTT, PT, and TT assays. Linear extrapolations are performed to estimate the concentrations required to double the clotting time for each assay.

Human plasma [2] = test: Human plasma anticoagulation, prothrombin time (PT); conditions: concentration required to double the PT, linear extrapolation
Procedure: as §3, §4

Human plasma [3] = test: Human plasma anticoagulation, activated partial thromboplastin time (APTT); conditions: concentration required to double the APTT, linear extrapolation
Procedure: as §3, §4

[4] = mean over a range of concentrations, […]

T1 sequence (P00742 235-488 limits assumed): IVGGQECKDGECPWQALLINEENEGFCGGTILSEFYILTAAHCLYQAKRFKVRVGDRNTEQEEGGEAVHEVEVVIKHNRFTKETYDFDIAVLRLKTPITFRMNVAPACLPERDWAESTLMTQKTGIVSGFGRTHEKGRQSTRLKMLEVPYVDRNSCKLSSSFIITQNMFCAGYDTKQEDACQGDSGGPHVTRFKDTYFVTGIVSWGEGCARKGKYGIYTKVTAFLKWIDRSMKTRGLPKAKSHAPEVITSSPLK
T1 sequence (P00742 41-179 partner limits assumed): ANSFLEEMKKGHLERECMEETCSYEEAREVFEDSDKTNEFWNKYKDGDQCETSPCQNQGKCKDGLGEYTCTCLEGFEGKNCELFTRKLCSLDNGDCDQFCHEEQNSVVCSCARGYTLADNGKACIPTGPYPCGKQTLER

N=C(N)c1ccc(CNC(=O)[C@@H]2C[C@@H]3CCCC[C@@H]3N2C(=O)[C@@H]2NCC[C@@H]3CCCC[C@@H]32)cc1 (relative stereo) [Example 42, D-1-Piq-cis-Ohi-p-NHCH2 C6 H4 C(NH)NH2.2HCl]
Kass Xa (factor Xa): 0.07 × 10^6 (L/mole)
Kass Human Thrombin (Human Thrombin): 38
Kass Trypsin (Bovine trypsin): 43 × 10^6 (L/mole)
Kass Plasmin (Human plasmin): 0.12 × 10^6 (L/mole)
Human Plasma Anticoagulation 2× Clotting time TT (Human plasma [1]): 20 ng/mL
Human Plasma Anticoagulation 2× Clotting time PT (Human plasma [2]): 320 ng/mL
Human Plasma Anticoagulation 2× Clotting time APTT (Human plasma [3]): 270 ng/mL

N=C(N)c1ccc(CNC(=O)[C@@H]2C[C@@H]3CCCC[C@@H]3N2C(=O)[C@H]2C[C@H]3CCCC[C@H]3CN2)cc1 (relative stereo) [Example 43, D-3-Piq-cis-Ohi-p-NHCH2 C6 H4 C(NH)NH2.2HCl]
Kass Xa (factor Xa): 0.05 × 10^6 (L/mole)
Kass Human Thrombin (Human Thrombin; [4]): 1.4 × 10^6 (L/mole)
Kass Trypsin (Bovine trypsin): 100 × 10^6 (L/mole)
Kass Plasmin (Human plasmin): 0.30 × 10^6 (L/mole)
Human Plasma Anticoagulation 2× Clotting time TT (Human plasma [1]): 280 ng/mL
Human Plasma Anticoagulation 2× Clotting time PT (Human plasma [2]): 930 ng/mL
Human Plasma Anticoagulation 2× Clotting time APTT (Human plasma [3]): 1,100 ng/mL

N=C(N)c1ccc(CNC(=O)[C@@H]2C[C@@H]3CCCC[C@@H]3N2C(=O)[C@@H](Cc2ccccc2)NCC(=O)O)cc1 (relative stereo) [Example 47, HOOCCH2 -D-Phe-cis-Ohi-p-NHCH2 C6 H4 C(NH)NH2.HCl]
Kass Xa (factor Xa): 0.04 × 10^6 (L/mole)
Kass Human Thrombin (Human Thrombin): 45
Kass Trypsin (Bovine trypsin): 82 × 10^6 (L/mole)
Kass Plasmin (Human plasmin): 0.18 × 10^6 (L/mole)
Human Plasma Anticoagulation 2× Clotting time TT (Human plasma [1]): 12 ng/mL
Human Plasma Anticoagulation 2× Clotting time PT (Human plasma [2]): 270 ng/mL
Human Plasma Anticoagulation 2× Clotting time APTT (Human plasma [3]): 140 ng/mL

N=C(N)c1cccc(CNC(=O)[C@@H]2CCCN2C(=O)[C@@H]2NCC[C@@H]3CCCC[C@@H]32)c1 [Example 25, D-1-Piq-Pro-m-NHCH2 --C6 H4 C(=NH)NH2.HCl]
Kass Xa (factor Xa): < 0.001 × 10^6 (L/mole)
Kass Human Thrombin (Human Thrombin; [4]): 0.43 × 10^6 (L/mole)
Kass Trypsin (Bovine trypsin): 0.01 × 10^6 (L/mole)
Kass Plasmin (Human plasmin): < 0.001 × 10^6 (L/mole)
Human Plasma Anticoagulation 2× Clotting time TT (Human plasma [1]): 1,430 ng/mL
Human Plasma Anticoagulation 2× Clotting time PT (Human plasma [2]): 40,400 ng/mL
Human Plasma Anticoagulation 2× Clotting time APTT (Human plasma [3]): 34,600 ng/mL

CCS(=O)(=O)N[C@H](Cc1ccccc1)C(=O)N1CCC[C@H]1C(=O)NCCc1ccc(C(=N)N)cc1 [Example 26, EtSO2 -D-Phe-Pro-p-NHCH2 CH2 --C6 H4 C(=NH)NH2.HCl]
Kass Xa (factor Xa): 0.01 × 10^6 (L/mole)
Kass Human Thrombin (Human Thrombin; [4]): 13 × 10^6 (L/mole)
Kass Trypsin (Bovine trypsin): 0.21 × 10^6 (L/mole)
Kass Plasmin (Human plasmin): 0.01 × 10^6 (L/mole)
Human Plasma Anticoagulation 2× Clotting time TT (Human plasma [1]): 37 ng/mL
Human Plasma Anticoagulation 2× Clotting time PT (Human plasma [2]): 750 ng/mL
Human Plasma Anticoagulation 2× Clotting time APTT (Human plasma [3]): 870 ng/mL

N=C(N)c1ccc(CCCNC(=O)[C@@H]2CCCN2C(=O)[C@@H]2NCC[C@@H]3CCCC[C@@H]32)cc1 [Example 32, 1-Piq-Pro-p-NHCH2 CH2 CH2 --C6 H4 C(=NH)NH2.HCl]
Kass Xa (factor Xa): 0.03 × 10^6 (L/mole)
Kass Human Thrombin (Human Thrombin; [4]): 0.13 × 10^6 (L/mole)
Kass Trypsin (Bovine trypsin): 0.04 × 10^6 (L/mole)
Kass Plasmin (Human plasmin): < 0.001 × 10^6 (L/mole)
Human Plasma Anticoagulation 2× Clotting time TT (Human plasma [1]): 3,100 ng/mL
Human Plasma Anticoagulation 2× Clotting time PT (Human plasma [2]): 47,800 ng/mL
Human Plasma Anticoagulation 2× Clotting time APTT (Human plasma [3]): 28,500 ng/mL

CCS(=O)(=O)N[C@H](Cc1ccccc1)C(=O)N1CCC[C@H]1C(=O)NCc1ccc(NC(=N)N)cc1 [Example 34, EtSO2 -D-Phe-Pro-p-NHCH2 C6 H4 NHC(NH)NH2.HCl]
Kass Xa (factor Xa): < 0.001 × 10^6 (L/mole)
Kass Human Thrombin (Human Thrombin; [4]): 0.65 × 10^6 (L/mole)
Kass Trypsin (Bovine trypsin): 0.49 × 10^6 (L/mole)
Kass Plasmin (Human plasmin): 0.01 × 10^6 (L/mole)
Human Plasma Anticoagulation 2× Clotting time TT (Human plasma [1]): 530 ng/mL
Human Plasma Anticoagulation 2× Clotting time PT (Human plasma [2]): 5,500 ng/mL
Human Plasma Anticoagulation 2× Clotting time APTT (Human plasma [3]): 4,900 ng/mL

N=C(N)Nc1ccc(CNC(=O)[C@@H]2CCCN2C(=O)[C@@H]2NCC[C@@H]3CCCC[C@@H]32)cc1 [Example 38, D-1-Piq-Pro-p-NHCH2 C6 H4 NHC(NH)NH2.2HCl]
Kass Xa (factor Xa): < 0.001 × 10^6 (L/mole)
Kass Human Thrombin (Human Thrombin; [4]): 1.1 × 10^6 (L/mole)
Kass Trypsin (Bovine trypsin): 0.07 × 10^6 (L/mole)
Kass Plasmin (Human plasmin): < 0.001 × 10^6 (L/mole)
Human Plasma Anticoagulation 2× Clotting time TT (Human plasma [1]): 540 ng/mL
Human Plasma Anticoagulation 2× Clotting time PT (Human plasma [2]): 11,100 ng/mL
Human Plasma Anticoagulation 2× Clotting time APTT (Human plasma [3]): 6,100 ng/mL

N=C(N)Nc1ccc(CCNC(=O)[C@@H]2CCCN2C(=O)[C@@H]2NCC[C@@H]3CCCC[C@@H]32)cc1 [Example 39, D-1-Piq-Pro-p-NHCH2 CH2 C6 H4 NHC(NH)NH2.2HCl]
Kass Xa (factor Xa): < 0.001 × 10^6 (L/mole)
Kass Human Thrombin (Human Thrombin; [4]): 0.12 × 10^6 (L/mole)
Kass Trypsin (Bovine trypsin): < 0.02 × 10^6 (L/mole)
Kass Plasmin (Human plasmin): < 0.001 × 10^6 (L/mole)
Human Plasma Anticoagulation 2× Clotting time TT (Human plasma [1]): 5,300 ng/mL
Human Plasma Anticoagulation 2× Clotting time PT (Human plasma [2]): 78,600 ng/mL
Human Plasma Anticoagulation 2× Clotting time APTT (Human plasma [3]): 69,200 ng/mL

N=C(N)Nc1cccc(CNC(=O)[C@@H]2CCCN2C(=O)[C@@H]2NCC[C@@H]3CCCC[C@@H]32)c1 [Example 40, D-1-Piq-Pro-m-NHCH2 C6 H4 NHC(NH)NH2.2HCl]
Kass Xa (factor Xa): < 0.001 × 10^6 (L/mole)
Kass Human Thrombin (Human Thrombin; [4]): 0.03 × 10^6 (L/mole)
Kass Trypsin (Bovine trypsin): 0.01 × 10^6 (L/mole)
Kass Plasmin (Human plasmin): < 0.001 × 10^6 (L/mole)
Human Plasma Anticoagulation 2× Clotting time TT (Human plasma [1]): 35,100 ng/mL
Human Plasma Anticoagulation 2× Clotting time PT (Human plasma [2]): > 91,000 ng/mL
Human Plasma Anticoagulation 2× Clotting time APTT (Human plasma [3]): > 91,000 ng/mL

N=C(N)Nc1cccc(CCNC(=O)[C@@H]2CCCN2C(=O)[C@@H]2NCC[C@@H]3CCCC[C@@H]32)c1 [Example 41, D-1-Piq-Pro-m-NHCH2 CH2 C6 H4 NHC(NH)NH2.2HCl]
Kass Xa (factor Xa): < 0.001 × 10^6 (L/mole)
Kass Human Thrombin (Human Thrombin; [4]): 0.01 × 10^6 (L/mole)
Kass Trypsin (Bovine trypsin): < 0.001 × 10^6 (L/mole)
Kass Plasmin (Human plasmin): < 0.001 × 10^6 (L/mole)
Human Plasma Anticoagulation 2× Clotting time TT (Human plasma [1]): 82,200 ng/mL
Human Plasma Anticoagulation 2× Clotting time PT (Human plasma [2]): > 91,000 ng/mL
Human Plasma Anticoagulation 2× Clotting time APTT (Human plasma [3]): > 91,000 ng/mL

Reference: patent publication US5707966A, “Antithrombotic agents” (Eli Lilly and Company, priority 1995, dated 1998)
